Converted amounts (≈) assume the structure as drawn. Where two headings read alike, the source gives them in different places.
How the values were obtained:
[1] = room temperature; cited from earlier work
[2] = Pharmacokinetic analysis in rats (AND in plasma by HPLC); parameters: species or system male Sprague Dawley rats; conditions: in vivo, rat
Experimental: The pharmacokinetic analysis was carried out in male Sprague Dawley rats. The animals were kept in light controlled environment (Photoperiod~12 h, 23 ± 1 °C, 50 ± 5% humidity) with access to food and water ad libitum. […] In brief, 120 male rats were indiscriminately divided into 30 groups of 4 animals each similar to blood collection time points. AND and AND equivalent to 100 mg.kg^−1 in AND-2-HyP-β-CYD complex was administered orally by gavages.
The AND in plasma was monitored up to 48 h post oral administration of AND and AND-2-HyP-β-CYD complex. Blood samples were collected in both groups at 0.083, 0.25, 0.5, 1, 2, 4, 8, 16, 24 and 48 h. About 750 μl of blood sample was isolated from the retro-orbital vein into microcentrifuge tubes containing 100 μl of 10 % w/v sodium citrate as anticoagulant. The plasma was extracted from the blood by centrifugation at 5000 rpm for 20 min at 4 °C and stored at -40 °C until analyzed.
To extract the AND from plasma samples, plasma was typically mixed with methanol (1: 3 ratio) and vortexed for 20 min. Post mixing, the homogenate was centrifuged for 20 min at 5000 rpm to extract the proteins. The supernatant was filtered through 0.22 μm membrane filter and 10 μl was injected as specified earlier in to the HPLC system.
Plasma concentration data were analyzed and computed for one-compartmental pharmacokinetic parameters. The following pharmacokinetic parameters were assessed: ke (h), t1/2 (h), Cmax (μg.mL^−1), AUClast (h.μg.mL^−1), AUCinf (h.μg.mL^−1), MRT (h), CLTotal (L.h^−1), Vd (L) and F %.

[3] = Dissolution test (USP apparatus, SIF pH 7.2); assay type: physicochemical; conditions: SIF pH 7.2, after 2 h
Experimental: Dissolution testing was carried out using USP dissolution rate test apparatus as per the standard protocol with HPLC method as specified earlier. In brief, 100 mg of AND or 100 mg of AND equivalent in AND-2-HyP-β-CYD complex powder was suspended in simulated intestinal fluid (SIF, pH 7.2, 900 mL) and paddle was rotated at 50 rpm. The temperature of SIF was kept at 37 ± 2 °C. At specified time intervals, 2 mL of the SIF was taken and replaced with identical volume.

[4] = cited from earlier work
[5] = Pharmacokinetic analysis in rats (AND in plasma by HPLC); conditions: male, Sprague Dawley, in vivo, rat
[6] = Solubility analysis by saturated solution method; assay type: physicochemical; conditions: aqueous phase, 37 °C
Experimental: The solubility of solid complex was measured by saturated solution method. […] Subsequently, suspension was filtered and 0.1 mL was diluted to 1 mL with water. […] All measurements were noticed in triplicate (n = 3).

[7] = in vivo, cited from earlier work
[8] = Cytotoxicity testing, MTT cell proliferation assay; assay type: cell-based; conditions: African green monkey, Vero E6 cells, concentration not given, read-out: % Cell viability against Vero E6 cells
Experimental: The cytotoxic effect of AND-2-HyP-β-CYD complex on the property of Vero E6 cells was evaluated by using MTT dye [3-(4,5-dimethylthiazol-2-yl)-2,5-diphenyltetrazolium bromide] assay technique. In brief, 1 × 10^4 Vero E6 cells were incubated for 24 h in serum DMEM (Dulbecco's Modified Eagle Medium) of about 200-μl in a 96 wells microtiter plate. Subsequently, Vero E6 cells were incubated for 24 h as well as 72 h with 10 μg.mL^−1 or 100-μg.mL^−1 of AND-2-HyP-β-CYD complex. On the other hand, remedisivir was taken as standard in identical concentration range. MTT dye stock solution (0.5 mg.mL^−1) was incorporated to each well of the microtiter plate post completion of incubation time. The plate was further incubated in 5% CO2 incubator at 37 °C for 4 h. The formazon crystals liberated after cell lysis, were suspended in 100 μL of DMSO (Dimethyl sulfoxide) in the last step. The absorbance was captured using reference wavelength of 630 nm in a ELISA reader at 570 nm.

SARS-CoV-2 = assay: microbe, parasite or virus in culture; assay type: cell-based; conditions: for % Inhibition of virus replication post infection: concentration not given; for IC50: Severe acute respiratory syndrome coronavirus 2, Vero C1008, Vero E6 cells infected with SARS-CoV-2, MOI 0.01, qRT-PCR after 48 h
[9] = male, Sprague Dawley, oral, 100 mg/kg (AND equivalent)

Structure (SMILES): CC(O)COC[C@H]1O[C@@H]2O[C@H]3[C@H](O)[C@@H](O)[C@@H](O[C@H]4[C@H](O)[C@@H](O)[C@@H](O[C@H]5[C@H](O)[C@@H](O)[C@@H](O[C@H]6[C@H](O)[C@@H](O)[C@@H](O[C@H]7[C@H](O)[C@@H](O)[C@@H](O[C@H]8[C@H](O)[C@@H](O)[C@@H](O[C@H]1[C@H](O)[C@H]2O)O[C@@H]8COCC(C)O)O[C@@H]7COCC(C)O)O[C@@H]6COCC(C)O)O[C@@H]5COCC(C)O)O[C@@H]4COCC(C)O)O[C@@H]3COCC(C)O (stereo partly drawn) [2-HyP-β-CYD, 2-Hydroxypropyl-β-cyclodextrin]
- Aqueous solubility [1]: > 500000 µg/mL

Structure (SMILES): C=C1CC[C@@H]2[C@](C)(CO)[C@H](O)CC[C@@]2(C)[C@@H]1C/C=C1/C(=O)OC[C@H]1O [AND, Andrographolide]
- bioavailability ([2]; male, Sprague Dawley, 100 mg.kg^−1, oral 100 mg/kg vs i.v. 10 mg/kg, read-out: F (%), bioavailability): 15.9 ± 3.84%
- AUC(0-inf) [2, 9]: 1850 ± 306 µg·h/mL
- AUC(0-t) [2, 9]: 1220 ± 143 µg·h/mL
- Cmax [2, 9]: 240 ± 75.4 µg/mL
- half-life [2, 9]: 5.92 ± 0.21 h
- MRT ([2]; po, 100 mg/kg): 1.49 ± 0.0.085 h
- % release [3]: 27.89 ± 1.32%
- log P [4]: 2.632 ± 0.135
- AUC(0-inf) ([5]; iv, 10 mg/kg): 891 ± 180 µg·h/mL
- AUC(0-t) ([5]; iv, 10 mg/kg): 801 ± 181 µg·h/mL
- MRT ([5]; iv, 10 mg/kg): 1.11 ± 0.04 h
- Vd ([5]; iv, 10 mg/kg): 0.013 ± 0.003 L
- half-life ([5]; iv, 10 mg/kg): 0.859 ± 0.031 h
- clearance ([5]; iv, i.v., 10 mg/kg, read-out: CLTotal (converted)): 0.183 mL/min
- Tmax ([5]; oral, 100 mg.kg^−1): 2 h
- solubility at 24 h [6]: 6.39 ± 0.47 µg/mL (≈ 18.2 µM)
- Half-life (t1/2) ([7]; iv): 1.86 ± 0.21 h
- Absolute oral bioavailability ([7]; po): 9.27 ± 1.69%
- Cmax ([7]; po): 0.73 ± 0.17 μM.L^−1
- Half-life (t1/2) ([7]; po): 3.30 ± 0.35 h
- Tmax ([7]; po): 0.42 ± 0.14 h

Structure (SMILES): CCC(CC)COC(=O)[C@H](C)N[P@](=O)(OC[C@H]1O[C@@](C#N)(c2ccc3c(N)ncnn23)[C@H](O)[C@@H]1O)Oc1ccccc1 [Remdesivir]
- viability at 24 h ([8]; 24 h): 99.2%
- viability at 48 h ([8]; 48 h): 94.4%
- % Inhibition of virus replication post infection (SARS-CoV-2; 24 h, E gene): 72.26%
- % Inhibition of virus replication post infection (SARS-CoV-2; 24 h, N gene): 77.61%
- % Inhibition of virus replication post infection (SARS-CoV-2; 48 h, E gene): 99.64%
- % Inhibition of virus replication post infection (SARS-CoV-2; 48 h, N gene): 99.76%
- IC50 (SARS-CoV-2; read-out: IC50 (E gene)): 0.09 µg/mL (≈ 0.149 µM)
- IC50 (SARS-CoV-2; read-out: IC50 (N gene)): 0.06 µg/mL (≈ 0.0996 µM)
